In paper PMC7591920, “A protein tertiary structure mimetic modulator of the Hippo signalling pathway” (Nature Communications, 2020):
Bridge positions count the residues as written; N and C are the ends. Peptide text beside a SMILES is read from it.

Tests used:
hTEAD1 = molecular target: T1, hTEAD1 (Homo sapiens, UniProt P28347); experiment: Direct fluorescence polarization with hTEAD1; format: binding; conditions: direct FP, fluorescent cofactor 10 nM titrated with hTEAD1, 1 h; triplicates; read-out: FP hTEAD1 Kd of FITC labelled cofactor
T1 construct: CDNA of hTEAD1(209–426) fused with an N-terminal GST tag; GST (N); 6x His-tag (N); 3C protease cleavage site (N); made in house; host or cells: Escherichia coli BL21 DE3 RIL(K+)
Procedure: Supplementary Figure 15│ Binding studies of hTEAD1 by fluorescence polarization. Dissociation constants were measured […]
The fluorescent cofactor (10 nM) are directly titrated with hTEAD1. After 1 hour of incubation, fluorescence polarization was measured, and a non-linear fitting was applied to the curves to determine the […]
In the competitive binding assay, first a complex with the fluorescent cofactor (10 nM) and hTEAD1 (100 nM) was formed and after 1 hour of incubation, the unlabelled peptide was titrated. After 1 hour of incubation, fluorescence polarization was measured, and a non-linear fitting was applied to the curves to determine the half maximal inhibitory concentration. (c) Competition assay […]
Mean ± SEM of triplicates were plotted for all data. Source data are provided as a Source Data file.
(1 picture or pasted object on this page, not shown here)

mTEAD4 [1] = molecular target: T2, mTEAD4 (Mus musculus, UniProt Q62296); experiment: SPR binding to immobilised mTEAD4; conditions: mTEAD4 amine-coupled on CM5, multi-cycle, steady-state fit 1:1 model, 10 mM HEPES 150 mM NaCl 0.05% Tween-20 pH 7.4, 0.3% DMSO, 20 °C, Fig. 1 values n = 1 replicate
T2 construct: Mouse TEAD4(210–427) cDNA fused with a 6x His-tag and a 3C protease cleavage site; 6x His-tag; 3C protease cleavage site; made in house; host or cells: E. coli BL21 DE3 RIL(K+)
Procedure: (§1) Sensor chips Series S CM5 (Research grade) were obtained from GE Healthcare. Prior to use, the sensor chips were equilibrated at room temperature for 15 min to prevent water condensation on the detector side of the sensor chip surface. A running buffer was prepared composed of 10 mM HEPES, 150 mM NaCl, and 0.05% (w/v) Tween-20, pH 7.4, and the system was equilibrated at 20 °C using a flow rate of 30 µL min^−1 after docking of the sensor chip. Ligand binding experiments have been performed applying the concept of multi-cycle kinetics. A contact time of 45 s was selected, followed by a 6-min dissociation phase to allow for complete dissociation of the analyte prior to the next cycle. […] Typically, seven concentrations of the analytes have been examined applying a threefold dilution pattern with 30 µM as top concentration. For the analysis, five running buffer blanks were injected to equilibrate the instrument. […] The carboxyl-dextran surface was activated for 7 min with 0.05 M NHS and 0.2 M EDC, followed by an injection of the proteins in 10 mM MES pH 6.4 at a concentration of 30–50 µg mL^−1. […] This was followed by a deactivation of the residual esters by injecting a solution of 0.5 M ethanolamine pH 8.0 for 7 min before engaging in ligand binding experiments. Reference surfaces were prepared accordingly, omitting the injection of protein over the activated reference surface.

GST-hTEAD1 = molecular target: T3, GST-hTEAD1 (Homo sapiens, UniProt P28347); experiment: SPR binding to immobilised GST-hTEAD1; conditions: GST-hTEAD1 amine-coupled on CM5, multi-cycle, steady-state fit 1:1 model, 10 mM HEPES 150 mM NaCl 0.05% Tween-20 pH 7.4, 0.3% DMSO, 20 °C, Fig. 1 values n = 1 replicate
T3 construct: CDNA of hTEAD1(209–426) fused with an N-terminal GST tag; made in house; host or cells: Escherichia coli BL21 DE3 RIL(K+)
Procedure: as §1

[2] = Circular dichroism, calculated helicity; format: physicochemical; conditions: 10 mM sodium phosphate pH 7.4, 75 to 10 µM peptide, CDNN software PEPFIT mode, unbound peptide
Procedure: The spectra were obtained using a Jasco J-715 and a cuvette 0.1 mm. Represented CD spectra are an average of five measurements done between λ = 190 and 300 nm with a continuous scan mode, 50 nm min^−1 scan speed and data point every 1 nm. The α-helicity was calculated using CDNN software using the PEPFIT mode[42].

mTEAD4 [3] = molecular target: T2, mTEAD4; experiment: Competition fluorescence polarization with mTEAD4 (alanine scan); format: binding; conditions: Ac-peptide vs FITC-labelled tracer peptide 10 nM, mTEAD4 400 nM, 1 h
Procedure: Competition FP: N-terminally acetylated peptides were diluted 1:1 in a 384-well plate (5 μL, 75 μM−9 pM). Ten microlitres of a mixture (1:1) of mTEAD4 and FITC-labelled peptide was added (final concentrations: acetylated peptides = 50 μM−6 pM; mTEAD4 protein = 400 nM; FITC-labelled tracer peptide = 10 nM). After 1 h, FP was measured (λ(ex) = […]). IC50 was determined from the binding curve with GraphPad from Prism.

T3 sequence (P28347 209-426): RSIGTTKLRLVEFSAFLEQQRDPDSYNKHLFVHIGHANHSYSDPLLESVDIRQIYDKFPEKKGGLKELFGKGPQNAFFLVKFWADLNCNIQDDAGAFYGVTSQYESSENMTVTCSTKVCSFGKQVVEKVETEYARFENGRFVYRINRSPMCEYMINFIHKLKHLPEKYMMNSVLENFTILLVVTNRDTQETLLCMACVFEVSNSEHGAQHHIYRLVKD
T2 sequence (Q62296 210-427): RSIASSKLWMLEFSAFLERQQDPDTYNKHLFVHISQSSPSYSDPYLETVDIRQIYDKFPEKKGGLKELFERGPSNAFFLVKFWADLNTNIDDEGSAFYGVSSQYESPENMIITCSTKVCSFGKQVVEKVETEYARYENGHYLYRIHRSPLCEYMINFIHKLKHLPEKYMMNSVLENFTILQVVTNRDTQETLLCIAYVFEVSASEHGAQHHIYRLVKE
T1 sequence (P28347 209-426): as the sequence (P28347 209-426) above

Row | Kd (hTEAD1) | Kd (mTEAD4 [1]) | Kd (GST-hTEAD1) | Helicity (CD) [2] | IC50 (mTEAD4 [3]) | Compound
1 | 0.017 ± 0.0025 µM | 2 µM | 1.4 µM | – | – | Ac-DPVVEEHFRRSLGKNYKEPEPAPNSVSITGSVDDHFAKALGDTWLQIKAAKDSA-NH2 (N-terminus and C-terminus assumed) [compound 1]
2 | – | > 100 µM | > 100 µM | < 5% | – | CC(=O)N[C@@H](CO)C(=O)N[C@H](C(=O)N[C@@H](CC(=O)O)C(=O)N[C@@H](CC(=O)O)C(=O)N[C@@H](Cc1c[nH]cn1)C(=O)N[C@@H](Cc1ccccc1)C(=O)N[C@@H](C)C(=O)N[C@@H](CCCCN)C(=O)N[C@@H](C)C(=O)N[C@@H](CC(C)C)C(=O)NCC(N)=O)C(C)C [compound 5] (Ac-SVDDHFAKALG-NH2)
3 | – | > 100 µM | > 100 µM | – | > 100 µM | CC[C@H](C)[C@@H]1NC(=O)[C@H](CCC(N)=O)NC(=O)[C@H](CC(C)C)NC(=O)[C@H](Cc2c[nH]c3ccccc23)NC(=O)[C@H]([C@@H](C)O)NC(=O)[C@H](C)NC(=O)CNC(=O)[C@H](CC(C)C)NC(=O)[C@H](C)NC(=O)[C@H](CCCCN)NC(=O)[C@H](C)NC(=O)[C@H](Cc2ccccc2)NC(=O)[C@H](Cc2c[nH]cn2)NC(=O)[C@H](CC(=O)O)NC(=O)[C@@H](NC(=O)[C@@H](NC(=O)[C@H](CO)NC(C)=O)C(C)C)CCC(=O)NCCCC[C@@H](C(=O)N[C@@H](C)C(=O)N[C@@H](C)C(N)=O)NC1=O [compound 21] (Ac-SVEDHFAKALGATWLQIKAA-NH2; lactam 3-18)
4 | – | > 100 µM | > 100 µM | – | > 100 µM | CC[C@H](C)[C@@H]1NC(=O)[C@H](CCC(N)=O)NC(=O)[C@H](CC(C)C)NC(=O)[C@H](Cc2c[nH]c3ccccc23)NC(=O)[C@H]([C@@H](C)O)NC(=O)[C@H](CC(=O)O)NC(=O)CNC(=O)[C@H](C)NC(=O)[C@H](C)NC(=O)[C@H](CCCCN)NC(=O)[C@H](C)NC(=O)[C@H](Cc2ccccc2)NC(=O)[C@H](Cc2c[nH]cn2)NC(=O)[C@H](CC(=O)O)NC(=O)[C@@H](NC(=O)[C@@H](NC(=O)[C@H](CO)NC(C)=O)C(C)C)CCC(=O)NCCCC[C@@H](C(=O)N[C@@H](C)C(=O)N[C@@H](C)C(N)=O)NC1=O [compound 20] (Ac-SVEDHFAKAAGDTWLQIKAA-NH2; lactam 3-18)
5 | – | > 100 µM | > 100 µM | – | > 50 µM | CC[C@H](C)[C@@H]1NC(=O)[C@H](CCC(N)=O)NC(=O)[C@H](CC(C)C)NC(=O)[C@H](Cc2c[nH]c3ccccc23)NC(=O)[C@H]([C@@H](C)O)NC(=O)[C@H](CC(=O)O)NC(=O)CNC(=O)[C@H](CC(C)C)NC(=O)[C@H](C)NC(=O)[C@H](CCCCN)NC(=O)[C@H](C)NC(=O)[C@H](C)NC(=O)[C@H](Cc2c[nH]cn2)NC(=O)[C@H](CC(=O)O)NC(=O)[C@@H](NC(=O)[C@@H](NC(=O)[C@H](CO)NC(C)=O)C(C)C)CCC(=O)NCCCC[C@@H](C(=O)N[C@@H](C)C(=O)N[C@@H](C)C(N)=O)NC1=O [compound 18] (Ac-SVEDHAAKALGDTWLQIKAA-NH2; lactam 3-18)
